Measurements taken from patent US9744212B2, “Galectin-3C combination therapy for human cancer” (Texas Tech University System, priority 2011, dated 2017).

Tests used:
[1] = test system: HUVEC; assay: HUVEC tubule formation assay on Matrigel with U266 conditioned media; type: cell-based, human; conditions: 20% V/V conditioned medium of U266 treated 48 h with 10 μg/mL Gal-3C, 5 nM Bor or both; 16-hour incubation
Experimental: HUVEC Tubule Formation Assay. A tubule formation assay was performed in vitro as described (86) to measure angiogenesis. Briefly, growth factor-reduced Matrigel (Becton Dickinson) was allowed to polymerize in the presence of 30 ng/mL recombinant basic fibroblastic growth factor (bFGF; R&D Systems) for 1 hour at 37° C.
FIG. 5 is an image of the results from the In vitro tubule formation assay having 6 regions. Serum-starved HUVEC were allowed to form tubules on a […]™ surface in the presence of VEGF (positive control), EMB-2 medium alone (negative control), or EBM-2 supplemented with 20% V/V U266 conditioned media (c.m.). […] To evaluate the effect of different treatments on the ability of U266 cells to induce angiogenesis, a […]™-based tubule formation assay was performed in the presence of U266 conditioned media as described for the chemotaxis assay. Serum-starved (5×103) HUVEC were seeded on the […]™ surface in 200-μL EBM-2 medium supplemented with 20% V/V conditioned medium. Pictures were taken after 16-hour incubation in 5% CO2 at 37° C. The assay was run in triplicate and representative images are depicted in FIG. 5. As a positive control, EBM-2 medium supplemented with 20 ng/mL VEGF was used.

[2] = test system: NF-kB (serine 529 phosphorylated p65 subunit); assay: Quantification of NF-kappaB activation by flow cytometry in U266 cells; type: cell-based, human; conditions: 48 hours
Experimental: Quantification of NF-kappaB Activation by Flow Cytometry. For measurement of NF-kB activation, 200×10^3 cells were fixed with 2% PFA in ice-cold PBS for 30 minutes. After removal of PFA, cells were permeabilized with 0.3% saponin in PBS on ice for 15 minutes, then washed and resuspended in 50 μL PBS supplemented with 1% BSA. PE-labeled anti-phosphorylated serine 529 p65 antibody (BD Biosciences, San Jose, Calif., USA) or isotype control (final dilution, 1:20) and allowed to incubate on ice in the dark for 30 minutes. Before flow-cytometric analysis cells were washed 3 times in 1-mL cold PBS with 1% BSA.
FIG. 8A is a dot-plot of NF-kB activation in U266 cells. After 48 hours in the presence of indicated treatments, the levels of active NF-KB (serine 529 phosphorylated p65 subunit) were evaluated in U266 cells by flow cytometry.

[3] = test system: bFGF; assay: ELISA of bFGF in U266 cell-conditioned medium; type: cell-based, human; conditions: 48-hour culture with 10 μg/mL Gal-3C, 5 nM Bor or both
Experimental: (§1) ELISA of VEGF and bFGF Levels. The levels of VEGF and bFGF were measured by direct ELISA as follows. Flat-bottom 96-well polycarbonate plates were coated at 4° C. with 50 μL/well cell culture supernatants diluted 1:25 in carbonate coating buffer (0.1 M NaHCO3, […]) at 4° C. overnight. Standard curves were obtained with purified recombinant human VEGF and bFGF (both from R&D Systems) serially diluted in coating buffer (10-fold serial dilutions from 1,000 to 0 ng/mL). After removing diluted supernatants or standards, and blocking with PBS supplemented with 1% W/V BSA for 1 hour at room temperature, plates were incubated for 1 hour at room temperature with mouse anti-human VEGF or rabbit anti-human bFGF primary antibodies (2 μg/mL in PBS, 50 μL/well Abeam, Mass., USA). Then, plates were washed twice with PBS with 0.025% V/V Tween-20 (300 μL/well) and incubated at room temperature with anti-mouse or anti-rabbit HRP-labeled secondary antibodies (0.2 μg/mL in PBS, 50 μL/well Abeam, Mass., USA) for 1 hour. The plates were washed thrice with PBS containing 0.025% V/V Tween-20 (300 μL/well), the TMB colorimetric substrate (Thermo Fisher Scientific, Waltham, Mass., USA) was added, and after 5 minutes the absorbance was measured (0.1 s) at 450 nm on a Victor 2 multimodal microplate reader (PerkinElmer, Billerica, Mass., USA). All samples were run in triplicates. […]

[4] = test system: HUVEC; assay: Vascular endothelial cell viability assay; type: cell-based, human
Experimental: FIGS. 4A and 4B are graphs of the data from the vascular endothelial cell viability assay. […] The graphs show mean values and error bars represent 95% C.I. **=ANOVA Tukey's post test p<O.Ol. n.s.=not significant. […] Viability was measured as described for the U266 cells. […] Results obtained from the HUVEC viability studies that were run in triplicate are depicted in FIGS. 4A-B, and are presented as a percentage of control (untreated) cells.
EXAMPLE 3 illustrates Gal-3C inhibits proliferation of MM cells. Cell Proliferation (Viability) Assays. Cell proliferation was assessed with a ViaLight Plus Cell Proliferation and Cytotoxicity BioAssay Kit (Lonza, Walkersville, Md., USA) according to the directions of the manufacturer. In brief, myeloma cells were seeded (8,000 per well) in 50 μL of RPMI-1640 with 10% heat-inactivated FBS (growth medium) in 96-well plates. HUVEC cells were seeded (10,000/well) in 50 μl EGM-2 medium in 96-well plates. Gal-3C (2× concentration) in 50 μL of growth medium was added to triplicate wells and the plate kept at the CO2 incubator at 37° C. for 48 hour. For the ViaLight assay, 50 μL of lysis buffer was added to each well, the plate was incubated for 10 minutes, after which 50 μL of cell lysate from each well was transferred to a solid white Lumitrac-200 plate and 50 μL of reconstituted AMR Plus was added. Luminescence was measured with a 1-s integrated setting in a Berthold luminometer after 2 minutes. With Alamar Blue, 10 μL of reagent was added per well and the plate kept in the CO2 incubator for 4 hours. Fluorescence intensity was measured at 590-nm on a Polarstar Galaxy (BMG Labtech, Cary, N.C.) microplate reader. The blank (growth media with 10 μl Alamar Blue) was subtracted from the raw fluorescence to obtain adjusted fluorescence readings. Triplicate data points were analyzed and the data shown are representative of 3 or more studies.

[5] = test system: VEGF; assay: ELISA of VEGF in U266 cell-conditioned medium; type: cell-based, human; conditions: 48-hour culture with 10 μg/mL Gal-3C, 5 nM Bor or both
Experimental: as §1

[6] = test system: AKT/IKK pathway; assay: Western blot of proteins in the NF-κB AKT/IKK pathway; type: cell-based; conditions: U266 and primary human MM cells; Gal-3C 10 μg/ml
Excerpt: EXAMPLE 4 indicates Gal-3C impairs NF-kB activation induced by Bonin U266 cells. Recently, it has been shown that the mechanism of action of Boris more complex than originally thought and can be differ depending on the cell type. […] This effect potentially reduces the therapeutic effect of Bonin MM, because NF-kB activation in plasma cells is associated with anti-apoptotic pathways (91). […] Comparison of NFkB expression by Western blot. […] Equal amounts of lysates of human primary MM and U266 cells and media were fractionated by SDS-PAGE and transferred to nitrocellulose membranes. Primary antibodies were visualized with HRP-coupled goat anti-rabbit or anti-mouse IgGs using an ATK/IKK kit (Cell Signaling Technology, Danvers, Mass.).
Upon IKK-mediated phosphorylation, IKBα dissociates from the NF-kB complex (p50 and p65 proteins). Free NF-kB is then phosphorylated on serine 529 of the p65 subunit and enters the nucleus where it regulates gene transcription.

CC(C)C[C@H](NC(=O)[C@H](Cc1ccccc1)NC(=O)c1cnccn1)B(O)O [Bor, bortezomib, reference compound]
potential of U266 cells for induction of angiogenesis (tubule formation) [1]: almost completely impaired
NF-kB activation (phosphorylated active form) [2]: activated NF-kB incrementally
bFGF levels in U266 conditioned medium [3]: significantly reduced
effect on HUVEC viability ([4]; Bor at the concentration used in HUVEC assays, combined with different concentrations of Gal-3C): did not display any effect
effect on HUVEC viability ([4]; at the concentration used in the chemotaxis and angiogenesis assays (Gal-3C 2 μg/ml, Bor 1 nM), 48 h): had an effect only at a concentration 5-fold higher
effect on HUVEC viability ([4]; at the highest concentrations, 48 h): dramatic inhibition
VEGF levels in U266 conditioned medium [5]: significantly reduced
P-p65, P-Akt, P-IKKβ and P-IKKα (activation of the AKT/IKK pathway) [6]: increased
